Measured values reported in ChEMBL document CHEMBL4417633, “Inhibitory polypeptides specific to WNT inhibitors” (2017).
Where a SMILES comes first, the peptide text is derived from it.

Columns and labels:
[1] = molecular target: T1, Dickkopf-related protein 1 (Homo sapiens, UniProt O94907); assay: Inhibition of biotin-labeled human recombinant DKK1 assessed as reduction in DKK1 interaction with LRP-6/Fc incubated overnight by chemiluminescence based Alpha-screen assay
T1 sequence (O94907 whole entry): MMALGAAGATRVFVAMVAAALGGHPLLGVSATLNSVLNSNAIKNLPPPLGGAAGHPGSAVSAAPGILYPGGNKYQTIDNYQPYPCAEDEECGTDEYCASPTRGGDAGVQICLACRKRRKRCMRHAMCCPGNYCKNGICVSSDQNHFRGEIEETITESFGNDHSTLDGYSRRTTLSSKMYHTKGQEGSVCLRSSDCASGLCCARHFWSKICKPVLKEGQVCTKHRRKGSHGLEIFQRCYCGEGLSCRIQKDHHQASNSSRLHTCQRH

[2] = molecular target: T2, Dickkopf WNT-signaling pathway inhibitor 1 (Rattus norvegicus, UniProt A6I0Z0); assay: Inhibition of biotin-labeled rat recombinant DKK1 assessed as reduction in DKK1 interaction with LRP-6/Fc incubated overnight by chemiluminescence based Alpha-screen assay
T2 sequence (A6I0Z0 whole entry): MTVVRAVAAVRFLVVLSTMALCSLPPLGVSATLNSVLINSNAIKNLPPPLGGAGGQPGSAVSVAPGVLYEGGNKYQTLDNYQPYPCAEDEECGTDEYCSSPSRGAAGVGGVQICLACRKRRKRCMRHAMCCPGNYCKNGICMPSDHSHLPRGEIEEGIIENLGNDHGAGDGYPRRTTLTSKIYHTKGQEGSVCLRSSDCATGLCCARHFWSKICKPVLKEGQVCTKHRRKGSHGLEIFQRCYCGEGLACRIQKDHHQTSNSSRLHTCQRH

| SMILES | IC50 [1] [nM] | IC50 [2] [nM] |
| --- | --- | --- |
| CSCC[C@H](NC(=O)[C@@H]1CCCN1C(=O)[C@H](Cc1ccc(O)cc1)NC(=O)[C@H](CS)NC(=O)[C@H](Cc1cnc[nH]1)NC(=O)[C@@H]1CCCN1C(=O)[C@H](Cc1cnc[nH]1)NC(=O)[C@H](CCCCN)NC(=O)[C@H](CC(C)C)NC(=O)[C@H](CS)NC(=O)[C@H](CCC(N)=O)NC(=O)[C@H](Cc1ccccc1)NC(=O)[C@H](Cc1ccc(O)cc1)NC(=O)[C@H](CO)NC(=O)[C@H](C)NC(=O)[C@@H]1CCCN1C(=O)[C@@H](N)CS)C(=O)N[C@@H](CCC(=O)O)C(=O)N[C@@H](Cc1c[nH]c2ccccc12)C(=O)N[C@@H](CCCNC(=N)N)C(=O)N[C@@H](CS)C(=O)N[C@@H](CC(=O)O)C(=O)NCC(=O)N[C@@H](Cc1ccccc1)C(=O)N[C@@H](CC(=O)O)C(=O)N[C@@H](CC(=O)O)C(=O)N[C@@H](CS)C(=O)N[C@@H](CCC(=O)O)C(=O)N[C@@H](CC(=O)O)C(=O)NCC(=O)N[C@@H](CO)C(=O)N[C@@H](CC(=O)O)C(=O)N[C@@H](CCC(=O)O)C(=O)N[C@H](C(=O)NCC(=O)N[C@@H](CS)C(=O)N1CCC[C@H]1C(=O)N[C@@H](Cc1ccc(O)cc1)C(=O)N[C@@H](CCCNC(=N)N)C(=O)N[C@H](C(=O)O)[C@@H](C)O)[C@@H](C)O (H-CPASYFQCLKHPHCYPMEWRCDGFDDCEDGSDETGCPYRT-OH) | ≤ 1 | ≤ 1 |
| CSCC[C@H](NC(=O)[C@H](CS)NC(=O)[C@H](CCC(N)=O)NC(=O)[C@H](Cc1ccccc1)NC(=O)[C@H](Cc1ccc(O)cc1)NC(=O)[C@H](CO)NC(=O)[C@H](C)NC(=O)[C@@H]1CCCN1C(=O)[C@@H](N)CS)C(=O)N[C@@H](CC(N)=O)C(=O)N[C@@H](Cc1cnc[nH]1)C(=O)N[C@@H](CC(N)=O)C(=O)N[C@@H](Cc1cnc[nH]1)C(=O)N[C@@H](CS)C(=O)N[C@@H](Cc1ccc(O)cc1)C(=O)N1CCC[C@H]1C(=O)N[C@@H](CCSC)C(=O)N[C@@H](CCC(=O)O)C(=O)N[C@@H](Cc1c[nH]c2ccccc12)C(=O)N[C@@H](CCCNC(=N)N)C(=O)N[C@@H](CS)C(=O)N[C@@H](CC(=O)O)C(=O)NCC(=O)N[C@@H](Cc1ccccc1)C(=O)N1CCC[C@H]1C(=O)N[C@@H](CC(=O)O)C(=O)N[C@@H](CS)C(=O)N[C@@H](CCC(=O)O)C(=O)N[C@@H](CC(=O)O)C(=O)NCC(=O)N[C@@H](CO)C(=O)N[C@@H](CC(=O)O)C(=O)N[C@@H](CCC(=O)O)C(=O)N[C@@H](CCCCN)C(=O)NCC(=O)N[C@@H](CS)C(=O)N1CCC[C@H]1C(=O)N[C@@H](Cc1ccc(O)cc1)C(=O)N[C@@H](CCCNC(=N)N)C(=O)N[C@H](C(=O)O)[C@@H](C)O (H-CPASYFQCMNHNHCYPMEWRCDGFPDCEDGSDEKGCPYRT-OH) | ≤ 1 | ≤ 1 |
| CC[C@H](C)[C@H](NC(=O)[C@H](CCC(=O)O)NC(=O)[C@H](CC(=O)O)NC(=O)[C@H](CO)NC(=O)CNC(=O)[C@H](CC(=O)O)NC(=O)[C@@H](NC(=O)[C@H](CS)NC(=O)[C@H](CC(=O)O)NC(=O)[C@H](Cc1cnc[nH]1)NC(=O)[C@H](Cc1ccccc1)NC(=O)CNC(=O)[C@H](CC(=O)O)NC(=O)[C@H](CS)NC(=O)[C@H](CCCNC(=N)N)NC(=O)[C@H](Cc1c[nH]c2ccccc12)NC(=O)[C@H](CCC(=O)O)NC(=O)[C@H](CCSC)NC(=O)[C@@H]1CCCN1C(=O)[C@H](Cc1ccc(O)cc1)NC(=O)[C@H](CS)NC(=O)[C@H](Cc1cnc[nH]1)NC(=O)[C@H](CC(N)=O)NC(=O)[C@H](Cc1cnc[nH]1)NC(=O)[C@H](Cc1cnc[nH]1)NC(=O)[C@H](CCCNC(=N)N)NC(=O)[C@H](CS)NC(=O)[C@H](CCC(N)=O)NC(=O)[C@H](Cc1ccccc1)NC(=O)[C@H](Cc1ccc(O)cc1)NC(=O)[C@H](CO)NC(=O)[C@H](C)NC(=O)[C@@H]1CCCN1C(=O)[C@@H](N)CS)C(C)C)C(=O)NCC(=O)N[C@@H](CS)C(=O)N1CCC[C@H]1C(=O)N[C@@H](Cc1ccc(O)cc1)C(=O)N[C@@H](CCCNC(=N)N)C(=O)N[C@H](C(=O)O)[C@@H](C)O (H-CPASYFQCRHHNHCYPMEWRCDGFHDCVDGSDEIGCPYRT-OH) | ≤ 1 | ≤ 1 |
